ChEMBL document CHEMBL2176970, “Discovery and optimization of a series of 3-(3-phenyl-3H-imidazo[4,5-b]pyridin-2-yl)pyridin-2-amines: orally bioavailable, selective, and potent ATP-independent Akt inhibitors” (J Med Chem, 2012)
The source made the active and inactive calls. The rule behind the calls is not given here.

Columns and labels:
[1] = molecular target: Cytochrome P450 2C9 (Homo sapiens, UniProt P11712); experiment: Inhibition of CYP2C9 in human liver microsomes using tolbutamide as substrate after 10 mins; type: ADME, Microsome
[2] = Half life in male CD1 mouse liver microsomes at 1 uM by LC/MS/MS; type: ADME, Microsome
[3] = molecular target: Cytochrome P450 2C19 (Homo sapiens, UniProt P33261); experiment: Inhibition of CYP2C19 in human liver microsomes using S-mephenytoin as substrate after 10 mins; type: ADME, Microsome
[4] = Half life in human liver microsomes at 1 uM by LC/MS/MS; type: ADME, Microsome
[5] = molecular target: T1, RAC-alpha serine/threonine-protein kinase (Homo sapiens, UniProt P31749); experiment: Inhibition of Akt1 in human A2780 cells assessed as phosphorylation of Akt at S473 after 2 hrs by Western Blot analysis; type: cell-based
[6] = Plasma concentration in CD1 mouse at 100 mg/kg, po after 2 hrs by LC/MS/MS analysis; type: ADME, organism-based; parameters: dose 100 mg/kg, route oral
[7] = molecular target: Cytochrome P450 3A4 (Homo sapiens, UniProt P08684); experiment: Inhibition of CYP3A4 in human liver microsomes using midazolam as substrate after 10 mins; type: ADME, Microsome
[8] = molecular target: T1, RAC-alpha serine/threonine-protein kinase; experiment: Inhibition of Akt1 in human AN3CA cells assessed as phosphorylation of Akt at S473 after 2 hrs by Western Blot analysis; type: cell-based, AN3-CA
[9] = molecular target: Cytochrome P450 2D6 (Homo sapiens, UniProt P10635); experiment: Inhibition of CYP2D6 in human liver microsomes using bufuralol as substrate after 10 mins; type: ADME, Microsome
[10] = Drug level in human AN3CA cells xenografted NCr mouse tumor at 100 mg/kg, po after 2 hrs; type: ADME, organism-based, Neoplasm, AN3-CA; parameters: dose 100 mg/kg, route oral; conditions: read-out: Drug uptake
[11] = Half life in female CD1 mouse liver microsomes at 1 uM by LC/MS/MS; type: ADME, Microsome
[12] = molecular target: T2, RAC-beta serine/threonine-protein kinase (Homo sapiens, UniProt P31751); experiment: Inhibition of Akt2 (1 to 481) expressed in Sf9 cells using biotin-GRPRTSSFAEG as substrate after 20 mins by Alpha-screen assay
[13] = tested on: Mus musculus; experiment: Inhibition of Akt in human AN3CA cells xenografted NCr mouse assessed as reduction of Akt phosphorylation at T308 in tumor at 100 mg/kg, po after 2 hrs; type: functional; conditions: AN3-CA
[14] = molecular target: T1, RAC-alpha serine/threonine-protein kinase; experiment: Inhibition of Akt1 in human AN3CA cells assessed as phosphorylation PRAS40 at T246 after 2 hrs by Western Blot analysis; type: cell-based, AN3-CA
[15] = tested on: AN3-CA; experiment: Antiproliferative activity against human AN3CA cells after 72 hrs by MTS assay; type: functional, cell-based
[16] = molecular target: T3, RAC-gamma serine/threonine-protein kinase (Homo sapiens, UniProt Q9Y243); experiment: Binding affinity to Akt3 (1 to 479) expressed in Sf9 cells assessed as change in melting temperature at 15 uM
[17] = Oral bioavailability in NCr mouse at 100 mg/kg; type: ADME, organism-based; conditions: in vivo
[18] = molecular target: T1, RAC-alpha serine/threonine-protein kinase; experiment: Inhibition of Akt1 (1 to 480) expressed in Sf9 cells using biotin-GRPRTSSFAEG as substrate after 20 mins by Alpha-screen assay
[19] = molecular target: T3, RAC-gamma serine/threonine-protein kinase; experiment: Inhibition of Akt3 (1 to 479) expressed in Sf9 cells using biotin-GRPRTSSFAEG as substrate after 20 mins by Alpha-screen assay
[20] = tested on: Mus musculus; experiment: Inhibition of Akt in human AN3CA cells xenografted NCr mouse assessed as reduction of Akt phosphorylation at S473 in tumor at 100 mg/kg, po after 2 hrs; type: functional; conditions: AN3-CA
[21] = molecular target: T1, RAC-alpha serine/threonine-protein kinase; conditions: Sf9
[22] = molecular target: T4, Cytochrome P450 2C8 (Homo sapiens, UniProt P10632); experiment: Inhibition of CYP2C8 in human liver microsomes using paclitaxel as substrate after 10 mins; type: ADME, Microsome
T4 sequence (P10632 whole entry): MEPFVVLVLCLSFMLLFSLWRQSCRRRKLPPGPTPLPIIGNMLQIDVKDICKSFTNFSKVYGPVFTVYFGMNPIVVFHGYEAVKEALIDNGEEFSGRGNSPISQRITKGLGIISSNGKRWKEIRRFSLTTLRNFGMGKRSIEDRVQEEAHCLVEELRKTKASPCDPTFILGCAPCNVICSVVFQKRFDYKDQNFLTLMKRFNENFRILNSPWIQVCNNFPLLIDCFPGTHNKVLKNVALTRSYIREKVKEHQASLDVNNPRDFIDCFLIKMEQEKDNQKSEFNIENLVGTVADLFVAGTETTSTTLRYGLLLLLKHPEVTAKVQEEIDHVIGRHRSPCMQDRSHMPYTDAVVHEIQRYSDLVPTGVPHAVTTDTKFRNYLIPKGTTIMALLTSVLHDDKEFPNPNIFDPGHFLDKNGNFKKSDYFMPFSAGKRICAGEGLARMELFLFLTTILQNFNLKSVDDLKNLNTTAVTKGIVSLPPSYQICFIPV

[23] = molecular target: T1, RAC-alpha serine/threonine-protein kinase; experiment: Inhibition of Akt 1 in human AN3CA cells assessed as phosphorylation of Akt at T308 after 2 hrs by Western Blot analysis; type: cell-based, AN3-CA
[24] = tested on: A2780; experiment: Antiproliferative activity against human A2780 cells after 72 hrs by MTS assay; type: functional, cell-based; conditions: A2780, 72 h
[25] = molecular target: T5, Cytochrome P450 1A2 (Homo sapiens, UniProt P05177); experiment: Inhibition of CYP1A2 in human liver microsomes using phenacetin as substrate after 10 mins; type: ADME, Microsome
T5 sequence (P05177 whole entry): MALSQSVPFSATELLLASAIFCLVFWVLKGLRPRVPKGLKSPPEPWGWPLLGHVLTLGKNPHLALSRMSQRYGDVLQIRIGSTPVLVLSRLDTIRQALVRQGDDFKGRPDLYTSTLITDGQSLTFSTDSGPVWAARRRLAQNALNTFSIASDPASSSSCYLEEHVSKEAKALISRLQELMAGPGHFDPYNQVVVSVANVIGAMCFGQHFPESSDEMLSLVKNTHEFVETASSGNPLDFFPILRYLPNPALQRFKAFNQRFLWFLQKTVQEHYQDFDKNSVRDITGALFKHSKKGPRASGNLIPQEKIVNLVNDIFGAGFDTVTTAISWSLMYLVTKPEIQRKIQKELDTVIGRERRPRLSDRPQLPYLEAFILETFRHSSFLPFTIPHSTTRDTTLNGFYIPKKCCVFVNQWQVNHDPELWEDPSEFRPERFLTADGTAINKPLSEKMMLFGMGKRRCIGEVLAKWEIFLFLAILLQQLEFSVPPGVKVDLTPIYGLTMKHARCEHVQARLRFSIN

[26] = tested on: Mus musculus; experiment: Inhibition of Akt in human AN3CA cells xenografted NCr mouse assessed as reduction of p70S6 phosphorylation at T389 in tumor at 100 mg/kg, po after 2 hrs; type: functional; conditions: AN3-CA
[27] = molecular target: T2, RAC-beta serine/threonine-protein kinase; experiment: Binding affinity to Akt2 (1 to 481) expressed in Sf9 cells assessed as change in melting temperature at 15 uM
[28] = molecular target: T1, RAC-alpha serine/threonine-protein kinase; experiment: Inhibition of Akt 1 in human A2780 cells assessed as phosphorylation of Akt at T308 after 2 hrs by Western Blot analysis; type: cell-based
[29] = molecular target: T1, RAC-alpha serine/threonine-protein kinase; experiment: Inhibition of Akt1 in human A2780 cells assessed as phosphorylation PRAS40 at T246 after 2 hrs by Western Blot analysis; type: cell-based
[30] = tested on: Mus musculus; experiment: Inhibition of Akt in human AN3CA cells xenografted NCr mouse assessed as reduction of Akt phosphorylation at S473 in tumor at 250 mg/kg, po after 4 hrs; type: functional; conditions: AN3-CA
[31] = tested on: Mus musculus; experiment: Inhibition of Akt in human AN3CA cells xenografted NCr mouse assessed as reduction of p70S6 phosphorylation at T389 in tumor at 250 mg/kg, po after 2 hrs; type: functional; conditions: AN3-CA
[32] = Plasma concentration in CD1 mouse at 250 mg/kg, po after 2 hrs by LC/MS/MS analysis; type: ADME, organism-based; parameters: dose 250 mg/kg, route oral
[33] = Drug level in human AN3CA cells xenografted NCr mouse tumor at 250 mg/kg, po after 4 hrs; type: ADME, organism-based, Neoplasm, AN3-CA; parameters: dose 250 mg/kg, route oral; conditions: read-out: Drug uptake
[34] = tested on: Mus musculus; experiment: Inhibition of Akt in human AN3CA cells xenografted NCr mouse assessed as reduction of p70S6 phosphorylation at T389 in tumor at 250 mg/kg, po after 4 hrs; type: functional; conditions: AN3-CA
[35] = tested on: Mus musculus; experiment: Inhibition of Akt in human AN3CA cells xenografted NCr mouse assessed as reduction of Akt phosphorylation at S473 in tumor at 250 mg/kg, po after 2 hrs; type: functional; conditions: AN3-CA
[36] = tested on: Mus musculus; experiment: Inhibition of Akt in human AN3CA cells xenografted NCr mouse assessed as reduction of Akt phosphorylation at T308 in tumor at 250 mg/kg, po after 2 hrs; type: functional; conditions: AN3-CA
[37] = tested on: Mus musculus; experiment: Inhibition of Akt in human AN3CA cells xenografted NCr mouse assessed as reduction of Akt phosphorylation at T308 in tumor at 250 mg/kg, po after 4 hrs; type: functional; conditions: AN3-CA
[38] = Plasma concentration in CD1 mouse at 250 mg/kg, po after 4 hrs by LC/MS/MS analysis; type: ADME, organism-based; parameters: dose 250 mg/kg, route oral
[39] = molecular target: T1, RAC-alpha serine/threonine-protein kinase; experiment: Binding affinity to Akt1 (1 to 480) expressed in Sf9 cells by SPR analysis
[40] = Drug level in human AN3CA cells xenografted NCr mouse tumor at 250 mg/kg, po after 2 hrs; type: ADME, organism-based, Neoplasm, AN3-CA; parameters: dose 250 mg/kg, route oral; conditions: read-out: Drug uptake
[41] = molecular target: T1, RAC-alpha serine/threonine-protein kinase; experiment: Inhibition of Akt1 (1 to 480) expressed in Sf9 cells in presence of A674563

T2 sequence (P31751 whole entry): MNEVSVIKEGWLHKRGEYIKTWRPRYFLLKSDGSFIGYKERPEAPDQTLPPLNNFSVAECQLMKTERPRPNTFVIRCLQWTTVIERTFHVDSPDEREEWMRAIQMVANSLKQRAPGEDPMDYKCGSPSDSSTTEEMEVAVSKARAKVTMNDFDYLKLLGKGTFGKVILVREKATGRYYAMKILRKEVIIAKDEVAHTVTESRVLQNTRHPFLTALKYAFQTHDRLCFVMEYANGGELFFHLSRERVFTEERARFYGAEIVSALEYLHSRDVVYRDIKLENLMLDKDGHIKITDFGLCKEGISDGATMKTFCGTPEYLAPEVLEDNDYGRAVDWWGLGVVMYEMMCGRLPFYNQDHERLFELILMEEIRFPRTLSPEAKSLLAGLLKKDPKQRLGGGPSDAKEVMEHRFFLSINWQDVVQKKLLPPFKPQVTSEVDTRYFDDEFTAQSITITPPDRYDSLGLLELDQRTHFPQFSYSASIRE
T3 sequence (Q9Y243 whole entry): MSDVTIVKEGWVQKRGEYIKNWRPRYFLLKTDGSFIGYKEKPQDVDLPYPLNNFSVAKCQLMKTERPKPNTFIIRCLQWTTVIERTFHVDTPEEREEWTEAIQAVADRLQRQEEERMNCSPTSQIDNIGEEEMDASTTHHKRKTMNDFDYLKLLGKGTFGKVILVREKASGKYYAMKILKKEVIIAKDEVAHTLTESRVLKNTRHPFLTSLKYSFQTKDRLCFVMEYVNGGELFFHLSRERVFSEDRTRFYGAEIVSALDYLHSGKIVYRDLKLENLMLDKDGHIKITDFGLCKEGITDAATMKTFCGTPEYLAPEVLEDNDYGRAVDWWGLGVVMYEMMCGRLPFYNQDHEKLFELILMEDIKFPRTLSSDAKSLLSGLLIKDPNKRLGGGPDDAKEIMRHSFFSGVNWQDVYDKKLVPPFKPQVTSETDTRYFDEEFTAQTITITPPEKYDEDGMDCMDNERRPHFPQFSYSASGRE
T1 sequence (P31749 whole entry): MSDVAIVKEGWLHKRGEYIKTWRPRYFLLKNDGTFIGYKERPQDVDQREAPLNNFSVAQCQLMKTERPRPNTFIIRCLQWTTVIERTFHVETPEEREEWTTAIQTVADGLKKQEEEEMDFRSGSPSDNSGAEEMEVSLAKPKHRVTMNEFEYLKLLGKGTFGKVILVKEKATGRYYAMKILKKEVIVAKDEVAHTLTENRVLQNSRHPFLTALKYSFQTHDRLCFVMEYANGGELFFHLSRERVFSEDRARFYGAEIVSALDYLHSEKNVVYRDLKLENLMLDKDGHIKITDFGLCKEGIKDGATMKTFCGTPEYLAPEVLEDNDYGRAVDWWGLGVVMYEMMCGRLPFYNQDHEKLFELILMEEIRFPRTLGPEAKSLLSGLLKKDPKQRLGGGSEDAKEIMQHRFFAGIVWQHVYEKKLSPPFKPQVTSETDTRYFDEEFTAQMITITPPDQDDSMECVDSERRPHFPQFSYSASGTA
Chain of Cytochrome P450 2C9 (P11712 whole entry): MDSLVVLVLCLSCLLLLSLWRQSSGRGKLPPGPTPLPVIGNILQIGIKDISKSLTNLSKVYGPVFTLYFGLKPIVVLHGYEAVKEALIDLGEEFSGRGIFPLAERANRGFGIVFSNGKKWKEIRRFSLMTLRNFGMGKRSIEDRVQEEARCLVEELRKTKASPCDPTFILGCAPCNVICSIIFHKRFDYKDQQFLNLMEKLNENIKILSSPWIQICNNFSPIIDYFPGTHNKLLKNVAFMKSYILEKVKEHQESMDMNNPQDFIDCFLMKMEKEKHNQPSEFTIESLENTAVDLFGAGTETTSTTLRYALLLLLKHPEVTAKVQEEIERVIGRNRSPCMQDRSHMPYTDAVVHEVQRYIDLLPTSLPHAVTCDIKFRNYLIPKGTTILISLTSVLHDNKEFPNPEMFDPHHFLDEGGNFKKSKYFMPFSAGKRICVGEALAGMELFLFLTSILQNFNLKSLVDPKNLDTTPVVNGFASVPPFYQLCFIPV
Chain of Cytochrome P450 3A4 (P08684 whole entry): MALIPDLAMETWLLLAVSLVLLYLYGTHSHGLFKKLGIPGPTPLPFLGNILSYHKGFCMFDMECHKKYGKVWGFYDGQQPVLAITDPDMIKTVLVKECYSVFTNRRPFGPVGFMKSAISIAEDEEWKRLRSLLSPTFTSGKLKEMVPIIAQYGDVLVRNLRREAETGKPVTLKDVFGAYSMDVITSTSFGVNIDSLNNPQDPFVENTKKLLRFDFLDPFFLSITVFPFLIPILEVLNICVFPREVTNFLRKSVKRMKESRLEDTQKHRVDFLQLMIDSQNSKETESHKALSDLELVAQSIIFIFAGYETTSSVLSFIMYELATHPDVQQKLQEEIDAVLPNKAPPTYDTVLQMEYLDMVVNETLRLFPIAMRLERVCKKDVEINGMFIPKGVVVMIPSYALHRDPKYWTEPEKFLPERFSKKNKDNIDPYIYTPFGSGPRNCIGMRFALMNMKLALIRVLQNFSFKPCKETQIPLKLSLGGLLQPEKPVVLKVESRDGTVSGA
Chain of Cytochrome P450 2C19 (P33261 whole entry): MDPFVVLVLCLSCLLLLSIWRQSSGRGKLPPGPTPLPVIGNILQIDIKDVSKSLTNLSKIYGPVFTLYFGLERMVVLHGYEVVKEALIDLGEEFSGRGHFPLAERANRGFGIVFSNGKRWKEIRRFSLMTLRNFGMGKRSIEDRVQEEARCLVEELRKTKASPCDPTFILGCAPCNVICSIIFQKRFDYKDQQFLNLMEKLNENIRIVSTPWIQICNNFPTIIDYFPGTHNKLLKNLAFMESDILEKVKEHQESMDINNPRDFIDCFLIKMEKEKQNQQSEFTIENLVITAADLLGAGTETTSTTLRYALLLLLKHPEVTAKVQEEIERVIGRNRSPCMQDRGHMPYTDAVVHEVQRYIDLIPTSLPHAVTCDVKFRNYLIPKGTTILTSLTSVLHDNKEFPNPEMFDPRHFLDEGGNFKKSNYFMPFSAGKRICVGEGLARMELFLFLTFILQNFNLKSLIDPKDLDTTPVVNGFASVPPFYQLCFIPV
Chain of Cytochrome P450 2D6 (P10635 whole entry): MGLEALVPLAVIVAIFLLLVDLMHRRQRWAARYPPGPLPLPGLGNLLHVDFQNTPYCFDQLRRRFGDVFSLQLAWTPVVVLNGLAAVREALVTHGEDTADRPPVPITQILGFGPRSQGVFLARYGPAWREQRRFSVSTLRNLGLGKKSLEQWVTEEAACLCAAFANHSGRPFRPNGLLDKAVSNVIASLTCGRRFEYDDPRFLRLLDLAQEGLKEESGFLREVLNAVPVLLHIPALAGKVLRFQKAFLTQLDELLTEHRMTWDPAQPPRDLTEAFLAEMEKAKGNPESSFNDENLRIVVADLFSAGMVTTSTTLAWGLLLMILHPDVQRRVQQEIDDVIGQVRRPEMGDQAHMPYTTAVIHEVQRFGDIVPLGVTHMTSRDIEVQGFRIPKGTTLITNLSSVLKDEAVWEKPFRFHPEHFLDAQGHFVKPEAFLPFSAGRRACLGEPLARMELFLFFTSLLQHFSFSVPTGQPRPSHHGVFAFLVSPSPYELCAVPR

Row | SMILES | IC50 [1] | half-life at 1 µM [2] | IC50 [3] | half-life at 1 µM [4] | IC50 [5] | IC50 [7] | IC50 [8] | IC50 [9] | half-life at 1 µM [11] | IC50 [12] | IC50 [14] | IC50 [15] | ΔTm [16] | IC50 [19] | ΔTm [21] | IC50 [22] | IC50 [23] | IC50 [24] | IC50 [25] | ΔTm [27] | further results
1 | Nc1ncccc1-c1nc2cc(-c3cccnc3)cnc2n1-c1ccc(CNC(=O)c2ccccc2)cc1 | > 10000 nM | > 60 min | > 10000 nM | > 30 min | 100 nM | > 10000 nM | 80 nM | > 10000 nM | > 60 min | 30 nM | 1500 nM | > 100000 nM | 1.6 °C | 660 nM | 9.2 °C | > 10000 nM | 91 nM | > 100000 nM | > 10000 nM | 4.8 °C | concentration at 2 h [6]: 14100 nM; concentration at 2 h [10]: 8400 nM; inhibition in vivo at 100 mg/kg [13]: 25%; bioavailability [17]: 46%; IC50 [18]: 8 nM; inhibition in vivo at 100 mg/kg [20]: 82%; inhibition in vivo at 100 mg/kg [26]: 76%; IC50 [28]: 62 nM; IC50 [29]: 950 nM
2 | CC(=O)Nc1cccc(-c2ccc3nc(-c4cccnc4N)n(-c4ccc(CNC(=O)c5cccc(F)c5)cc4)c3n2)c1 | 1000 nM | > 30 min | 1000 nM | > 30 min | 27 nM | > 10000 nM | 44 nM | > 10000 nM | > 30 min | 18 nM | 220 nM | 2000 nM | 2.9 °C | 170 nM | 13 °C | 1000 nM | 45 nM | 2200 nM | > 10000 nM | 7.7 °C | inhibition in vivo at 250 mg/kg [30]: 51%; inhibition in vivo at 250 mg/kg [31]: 90%; concentration at 2 h [32]: 2000 nM; concentration at 4 h [33]: 600 nM; inhibition in vivo at 250 mg/kg [34]: 86%; inhibition in vivo at 250 mg/kg [35]: 62%; inhibition in vivo at 250 mg/kg [36]: 57%; inhibition in vivo at 250 mg/kg [37]: 67%; concentration at 4 h [38]: 1200 nM; Activity [39]: Active; concentration at 2 h [40]: 1200 nM; inhibition [41]: Active; IC50 [28]: 32 nM; IC50 [29]: 250 nM
